US20020022647A1, “2-(4-bromo or 4-iodo phenylamino) benzoic acid derivatives” (priority 1997, published 2002)

Each compound was assayed against GST-MEK (p45MEK) and GST-MAPK (p44MAP kinase) (Homo sapiens, UniProt Q02750) (assay: Cascade assay for inhibitors of the MAP kinase pathway (In Vitro)). Settings: incorporation of 32P into myelin basic protein.
Format: biochemical
Protocol: Cascade Assay for Inhibitors of the MAP Kinase Pathway
Incorporation of ^32P into myelin basic protein (MBP) was assayed in the presence of a glutathione S-transferase fusion protein containing p44MAP kinase (GST-MAPK) and a glutathione S-transferase fusion protein containing p45MEK (GST-MEK). The assay solution contained 20 mM HEPES, pH 7.4, 10 mM MgCl2, 1 mM MnCl2, 1 mM EGTA, 50 μM [γ-^32P]ATP, 10 μg GST-MEK0.5 μg GST-MAPK and 40 μg MBP in a final volume of 100 μL. Reactions were stopped after 20 minutes by addition of trichloroacetic acid and filtered through a GF/C filter mat. ^32P retained on the filter mat was determined using a 1205 Betaplate. Compounds were assessed at 10 μM for ability to inhibit incorporation of ^32P.
To ascertain whether compounds were inhibiting GST-MEK or GST MAPK, two additional protocols were employed. In the first protocol, compounds were added to tubes containing GST-MEK, followed by addition of GST-MAPK, MBP and [γ-^32P]ATP. In the second protocol, compounds were added to tubes containing both GST-MEK and GST-MAPK, followed by MBP and [γ-^32P]ATP.

Chain of GST-MEK (p45MEK) and GST-MAPK (p44MAP kinase) (Q02750 whole entry): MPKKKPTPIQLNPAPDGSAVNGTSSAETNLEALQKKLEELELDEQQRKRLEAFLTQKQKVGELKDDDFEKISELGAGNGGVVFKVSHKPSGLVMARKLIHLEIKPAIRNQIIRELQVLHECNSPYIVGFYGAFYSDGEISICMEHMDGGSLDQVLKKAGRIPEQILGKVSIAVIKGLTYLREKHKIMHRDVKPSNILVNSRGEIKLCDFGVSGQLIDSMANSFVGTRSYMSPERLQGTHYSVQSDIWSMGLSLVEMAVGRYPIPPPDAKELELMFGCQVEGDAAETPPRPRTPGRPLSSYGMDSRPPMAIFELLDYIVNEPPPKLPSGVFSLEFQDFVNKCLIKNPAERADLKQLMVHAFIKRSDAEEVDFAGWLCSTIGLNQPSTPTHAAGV

| IC50 [µM] | SMILES |
| --- | --- |
| 0.019 | Cc1cc(I)ccc1Nc1cc(F)ccc1C(=O)O [Example 1, 4-Fluoro-2-(4-iodo-2-methylphenylamino)benzoic acid] |
| 0.014 | Cc1cc(I)ccc1Nc1c(C(=O)O)cc(F)c(F)c1F [Example 2, 3,4,5-Trifluoro-2-(4-iodo-2-methyl-phenylamino)-benzoic acid] |
| 0.0111 | Cc1cc(I)ccc1Nc1c(C(=O)O)ccc(F)c1F [Example 3, 3,4-Difluoro-2-(4-iodo-2-methyl-phenylamino)-benzoic acid] |
| 0.005 | Cc1cc(I)ccc1Nc1c(C(=O)O)cc(Br)c(F)c1F [Example 4, 5-Bromo-3,4-difluoro-2-(4-iodo-2-methyl-phenylamino)-benzoic acid] |
| 0.066 | O=C(O)c1cc(Cl)ccc1Nc1ccc(I)cc1Cl [Example 5, 5-Chloro-2-(2-chloro-4-iodo-phenylamino)--benzoic acid] |
| 0.086 | Cc1cc(I)ccc1Nc1ccc(Br)cc1C(=O)O [Example 8, 5-Bromo-2-(4-iodo-2-methyl-phenylamino)-benzoic acid] |
| 0.097 | O=C(O)c1cc([N+](=O)[O-])ccc1Nc1ccc(I)cc1Cl [Example 9, 2-(2-Chloro-4-iodo-phenylamino)-5-nitro-benzoic acid] |
| 0.101 | Cc1c(Nc2cc(F)ccc2C(=O)O)ccc(I)c1F [Example 10, 4-Fluoro-2-(3-fluoro-4-iodo-2-methyl-phenylamino)-benzoic acid] |
| 0.128 | Cc1cc(I)ccc1Nc1ccc([N+](=O)[O-])cc1C(=O)O [Example 11, 2-(4-Iodo-2-methyl-phenylamino)-5-nitro-benzoic acid] |
| 0.135 | O=C(O)c1cc([N+](=O)[O-])ccc1Nc1ccc(I)cc1F [Example 12, 2-(2-Fluoro-4-iodo-phenylamino)-5-nitro-benzoic acid] |
| 0.178 | Cc1cc(Br)ccc1Nc1cc(F)ccc1C(=O)O [Example 13, 2-(4-Bromo-2-methyl-phenylamino)-4-fluoro-benzoic acid] |
| 0.179 | O=C(O)c1cc([N+](=O)[O-])ccc1Nc1ccc(I)cc1Br [Example 14, 2-(2-Bromo-4-iodo-phenylamino)-5-nitro-benzoic acid] |
| 0.194 | Cc1cc(Br)ccc1Nc1c(C(=O)O)ccc(F)c1F [Example 15, 2-(4-Bromo-2-methyl-phenylamino)-3,4-difluoro-benzoic acid] |
| 0.323 | Cc1cc(I)ccc1Nc1c(F)cccc1C(=O)O [Example 16, 3-Fluoro-2-(4-iodo-2-methyl-phenylamino)-benzoic acid] |
| 0.434 | COc1cc(I)ccc1Nc1c(C(=O)O)ccc(F)c1F [Example 17, 3,4-Difluoro-2-(4-iodo-2-methoxy-phenylamino)-benzoic acid] |
| 0.446 | Cc1cc(I)ccc1Nc1cc(Cl)ccc1C(=O)O [Example 18, 4-Chloro-2-(4-iodo-2-methyl-phenylamino)-benzoic acid] |
| 0.524 | Cc1cc(I)ccc1Nc1ccccc1C(=O)O [Example 19, 2-(4-Iodo-2-methyl-phenylamino)-benzoic acid] |
| 0.557 | Cc1cc(I)ccc1Nc1ccc(F)cc1C(=O)O [Example 20, 5-Fluoro-2-(4-iodo-2-methyl-phenylamino)-benzoic acid] |
| 0.569 | Cc1cc(I)ccc1Nc1ccc(I)cc1C(=O)O [Example 21, 5-Iodo-2-(4-iodo-2-methyl-phenylamino)-benzoic acid] |
| 1.581 | Cc1cc(I)ccc1Nc1c(F)cc(C(=O)O)c(F)c1F [Example 22, 2,3,5-Trifluoro-4-(4-iodo-2-methyl-phenylamino)-benzoic acid] |
| 1.588 | Cc1c(Nc2cc(F)ccc2C(=O)O)ccc(I)c1Cl [Example 23, 4-Fluoro-2-(3-chloro-4-iodo-2-methyl-phenylamino) benzoic acid] |
| 1.944 | COc1ccc(Nc2ccc(I)cc2)c(C(=O)O)c1 [Example 24, 2-(4-Iodo-phenylamino)-5-methoxy-benzoic acid] |
| 2.363 | O=C(O)c1cccc(Cl)c1Nc1ccc(I)cc1Cl [Example 25, 3-Chloro-2-(2-chloro-4-iodo-phenylamino)-benzoic acid] |
| 2.609 | Cc1cc(I)ccc1Nc1cccc(F)c1C(=O)O [Example 26, 2-Fluoro-6-(4-iodo-2-methyl-phenylamino)-benzoic acid] |

| IC50 [µM] | SMILES |
| --- | --- |
| 3.670 | Cc1ccc(Nc2ccc(I)cc2C)c(C(=O)O)c1 [Example 28, 5-Methyl-2-(4-iodo-2-methyl-phenylamino)-benzoic acid] |
| 5.331 | Cc1cc(I)ccc1Nc1cccc(Cl)c1C(=O)O [Example 29, 2-Chloro-6-(4-iodo-2-methyl-phenylamino)-benzoic acid] |
| 0.028 | COc1ccc(NC(=O)c2ccc(OC)c([N+](=O)[O-])c2)cc1 [Example 32, 4-Methoxy-N-(4-methoxy-phenyl)-3-nitro-benzamide] |
| 0.052 | Cc1cc(I)ccc1Nc1cc(F)ccc1C(N)=O [Example 33, 4-Fluoro-2-(4-iodo-2-methyl-phenylamino)-benzaniide] |
| 0.098 | CNC(=O)c1ccc(F)cc1Nc1ccc(I)cc1C [Example 34] |
| 0.121 | CCNC(=O)c1ccc(F)cc1Nc1ccc(I)cc1C [Example 35, N-Ethyl-4-fluoro-2-(4-iodo-2-methyl-phenylamino)-benzamide] |
| 0.129 | Cc1cc(I)ccc1Nc1cc(F)ccc1C(=O)N(C)C [Example 36, 4-Fluoro-2-(4-iodo-2-methyl-phenylamino)-N,N-dimethyl-benzamide] |
| 0.237 | Cc1cc(I)ccc1Nc1cc(F)ccc1C(=O)Nc1nnn[nH]1 [Example 37, 4-Fluoro-2-(4-iodo-2-methyl-phenylamino)-N-(1H-tetrazol-5-yl)-benzamide] |
| 0.412 | Cc1cc(I)ccc1Nc1ccc(Br)cc1C(N)=O [Example 38, 5-Bromo-2-(4-iodo-2-methyl-phenylamino)-benzamide] |
| 0.497 | Cc1cc(I)ccc1Nc1ccc(Cl)cc1C(=O)N(C)C [Example 39, 5-Chloro-2-(4-iodo-2-methyl-phenylamino)-N,N-dimethyl-benzamide] |
| 0.872 | CCCNC(=O)c1ccc(F)cc1Nc1ccc(I)cc1C [Example 41, 4-Fluoro-2-(4-iodo-2-methyl-phenylamino)-N-propyl-benzamide] |
| 0.920 | Cc1cc(I)ccc1Nc1ccc(Br)cc1C(=O)NCCO [Example 42, 5-Bromo-N-(2-hydroxy-ethyl)-2-(4-iodo-2-methyl-phenylamino)-benzamide] |
| 1.481 | Cc1cc(I)ccc1Nc1cc(F)ccc1C(=O)NCCCN1CCN(CCO)CC1 [Example 44, 4-Fluoro-N-{3-[4-(2-hydroxy-ethyl)-piperazin-1-yl]-propyl}-2-(4-iodo-2-methyl-phenylamino)-benzamide] |
| 1.755 | CCN(CC)C(=O)c1cc([N+](=O)[O-])ccc1Nc1ccc(I)cc1C [Example 45, N,N-Diethyl-2-(4-iodo-2-methyl-phenylamino)-5-nitro-benzamide] |
| 1.814 | CCCCNC(=O)c1ccc(F)cc1Nc1ccc(I)cc1C [Example 46, N-Butyl-4-fluoro-2-(4-iodo-2-methyl-phenylamino)-benzamide] |
| 1.911 | CCN(CC)C(=O)c1cc(Cl)ccc1Nc1ccc(I)cc1C [Example 47, 5-Chloro-N,N-diethyl-2-(4-iodo-2-methyl-phenylamino)-benzamide] |
| 1.945 | Cc1cc(I)ccc1Nc1ccc(Br)cc1C(=O)N(C)C [Example 48] |
| 0.887 | Cc1cc(I)ccc1Nc1ccc([N+](=O)[O-])cc1CO [Example 51, [2-(4-Iodo-2-methyl-phenylamino)-5-nitro-phenyl]-methanol] |
| 2.346 | Cc1cc(I)ccc1Nc1ccc(Br)cc1CO [Example 52, [5-Bromo-2-(4-iodo-2-methyl-phenylamino)-phenyl]-methanol] |
| 0.158 | Cc1cc(I)ccc1Nc1c(C(=O)NCC(O)CO)ccc(F)c1F (stereo not shown) [Example 54, N-(2,3-Dihydroxy-propyl)-3,4-difluoro-2-(4-iodo-2-methyl-phenylamino)-benzamide] |
| 0.114 | Cc1cc(I)ccc1Nc1c(C(=O)NCCN2CCCCC2)cc(Br)c(F)c1F [Example 55, 5-Bromo-3,4-difluoro-2-(4-iodo-2-methyl-phenylamino)-N-(2-piperidin-1-yl-ethyl)-benzamide] |
| 0.399 | Cc1cc(I)ccc1Nc1cc(F)ccc1C(=O)NCC(O)CO (stereo not shown) [Example 57, N-(2,3-Dihydroxy-propyl)-4-fluoro-2-(4-iodo-2-methyl-phenylamino)-benzamide] |
| 0.604 | Cc1cc(I)ccc1Nc1ccc(F)cc1C(=O)NCCCN1CCN(CCO)CC1 [Example 90, 5-Fluoro-N-{3-[4-(2-hydroxy-ethyl)-piperazin-1-yl]-propyl}-2-(4-iodo-2-methyl-phenylamino)-benzamide] |

| SMILES | IC50 [µM] |
| --- | --- |
| Cc1cc(I)ccc1Nc1ccc(Cl)cc1C(=O)O [Example 6, 5-Chloro-2-(4-iodo-2-methyl-phenylamino)-benzoic acid] | 0.071 |
| Cc1cc(I)ccc1Nc1ccc(Cl)cc1C(=O)[O-].[Na+] [Example 7, Sodium 5-Chloro-2-(4-iodo-2-methyl-phenylamino)-benzoate] | 0.072 |
